Data published in patent US20210236664A1, “ALPHA PARTICLE FORMULATIONS FOR TREATMENT OF SOLID TUMORS” (The Johns Hopkins University, priority 2018, published 2021).

Legend:
[1] = system: castration resistant prostate cancer; settings: castration resistant prostate cancer patients; cited from earlier work
bladder cancer = settings: survive >300 d following treatment; cited from earlier work
Hep G2 tumor = test: Tumor retention after intra-tumoral injection in hepatocellular carcinoma mouse model; type: in vivo, mice; settings: n=3
Experimental: ^111In-DOTA-tetradecylamine(TDA) was synthesized with a radiolabeling yield >95%. The retention of ^111In-DOTA-TDA within a hepatocellular carcinoma mouse model was evaluated; Hep G2 tumor-bearing SCID mice (24 hours, n=3) and NCG mice (48 hours, n=3) following intra-tumoral injections of ^111In-DOTA-TDA alone or as a Lipiodol emulsion (FIG. 6).

[2] = Octanol partition coefficient
Source text: Partition coefficients will be as previously described with some minor modifications. Decristoforo, C., et al., 2008. Octanol and saline (pH=7.4) will be used to assess the […] of the proposed compounds. Briefly, the radiolabeled ^111In- and ^225Ac-labeled DOTA(GA)-alkyl chelates will be vortexed with octanol and saline then centrifuged to separate layers. Aliquots (3) from each layer will be removed and counted. The […] will be determined using the following equations:
Poct/saline=Log([activity]octanol/[activity]saline).
A greater than 95% purity was obtained following purification with a Seppak.

## [Cl][223Ra][Cl] [XOFIGO®, Radium-223 Dichloride]
[1]
  increased survival benefit: 2.8 month

## CO[C@@]12[C@H](COC(N)=O)C3=C(C(=O)C(C)=C(N)C3=O)N1C[C@@H]1N[C@@H]12 [mitomycin C]
Bladder cancer
  survival of mice: 40%

## ^111In-DOTA-tetradecylamine [^111In-DOTA-TDA]
Hep G2 tumor; 24 hours, Hep G2 tumor-bearing SCID mice
  uptake within the tumor: 103±65.0 % ID/g
Hep G2 tumor; 48 hours, Hep G2 tumor-bearing NCG mice
  uptake within the tumor: 20.0±15.9 % ID/g
[2]
  Log Poct: 1.57±0.005
